The source of these data is publication PMC6822764, “MitoToxy assay: A novel cell-based method for the assessment of metabolic toxicity in a multiwell plate format using a lactate FRET nanosensor, Laconic” (PLoS ONE, 2019).

pEC50, pIC50: −log10 of the molar value. Where “and” joins values, the source holds several entries; their conditions need not be identical. Identical values can stand only once. Like-named read-outs stand apart in the source and are kept apart here. Bounds are passed on as bounds.

Assay [1] concerns MDA-MB-231 cells stably expressing the FRET lactate indicator Laconic (MitoTox Reporter). Kind of assay: MitoToxy assay: toxicity-induced lactate accumulation in MitoTox Reporter cells, 96-well plate reader, with 50 μM pCMBS. The assay is classed as cell-based. Particulars: read-out: IC50 (toxicity-induced lactate accumulation, MitoToxy). As for the experimental part: (§1) MitoTox reporter cell line was cultured in Leibowitz media (Gibco) supplemented with 10% of fetal bovine serum (FBS) at 37°C at atmospheric CO2 levels in a 100 mm petri dish. Once cells reached 100% confluency, they were trypsinized using 5% trypsin (Gibco) and washed in PBS. Viability was determine using trypan blue staining and 10,000 cells were seeded into each well of a 96 well plate. Experiments in 96 well format were performed once cells reached 100% confluency after 6 days, during the incubation media was not replaced. All the plates with signal-to-noise ration below 1.3 for monomeric Teal Fluorescent Protein (mTFP) and Venus channels were discarded. Background signal was determined with KRH buffer without cells. Experiments consisted in washing out the culture media using KRH HEPES buffer containing (mM) 136 NaCl, 3 KCl, 1.25 CaCl2, 1.25 MgCl2, 10 HEPES/Tris and pH 7.2 at 37°C with 300 mOsm. Then 200 μl of KRH HEPES buffer without any carbon sources was added to each well and the baseline was measured (RMIN), then 100 μl of buffer was replaced with mitochondrial toxicant/controls and signal was measured to obtain a stimulated response (RMAX). In experiments were pCMBS was used to block lactate exit, the inhibitor was added simultaneously with the mitochondrial toxicants. Data was collected in triplicated after 5, 10, 30, and 60 minutes of incubation. All the experiments in 96 well plates were performed in an EnVision® multiplate reader (PerkinElmer). Each well was excited at 430 nm and the intensity of mTFP and Venus fluorescence emission were recorded at 485 nm and 528 nm, using a set of filters.
(§2) Where R(mTFP/Venus) min corresponded to the minimal change of mTFP/Venus ratio during the single-cell experiments. Results in 96 well plates experiments were expressed by the ΔR%. This parameter was obtained from the difference between the RMAX and RMIN from the same well (before-after experiment) as follow: ΔR%=(R(mTFP/Venus)max−R(mTFP/Venus)min/R(mTFP/Venus)min)x100

The test system of assay [2] is primary culture of astrocytes from the mouse cortex expressing Laconic. Kind of assay: Single-cell lactate imaging (Laconic) in primary culture of cortical astrocytes. In kind it is cell-based.
Protocol: Animals used for primary cultures were mixed F1 male mice (C57BL/6J × CBA/J), kept in an animal room under SPF conditions at a room temperature of 20 ± 2°C, in a 12/12-h light/dark cycle and with free access to water and food. Mixed cortical cultures of neuronal and glia cells (1 –to 3-day-old neonates) was cultured in Neurobasal medium (Gibco) supplemented with 5 mM glucose and B27. Cells were seeded on petri dishes and superfused with KRH HEPES pH 7.4. The lactate imaging experiments with single-cell resolution were performed using cultured astrocytes at 11–14 days post-dissection. Real time experiments were performed with KRH HEPES bathing solution containing (in mM) 136 NaCl, 3 KCl, 1.25 CaCl2, 1.25 MgCl2, 10 HEPES/Tris and pH 7.2 at 36°C with 300 mOsm, without carbon sources for mitochondrial toxicant experiments and 2 mM glucose and 1 mM lactate for Warburg index determination. Experiments were performed in upright Olympus FV1000 confocal microscope equipped with a 20X water-immersion objective (numerical aperture, 1.0) and a 440 nm solid-state laser.
To plot the data, we used a ratio between mTFP and Venus channels. This ratio is proportional to lactate levels, since its binding to the sensor produced a decrease in FRET efficiency. This ratio was expressed in two formulas described below: NormalizedΔR=R(mTFP/Venus)/R(mTFP/Venus)min
With the aim of testing if this observation occurs in general and if azide induced-lactate accumulation can be reproduced using another mitochondrial toxicant with a different molecular target, we performed single-cell experiments exposing primary culture of astrocytes from the mouse cortex expressing Laconic (Fig 1A) to different mitochondria inhibitors that block the ETC at different levels (Fig 1C). To take advantage of the maximal dynamic range of the lactate FRET sensor the baseline measurements were performed using buffer without carbon sources to force start the experiments with lactate levels below 100 μM.
Each data point is from an average of ten cells from three independent experiments.
Another assay concerns MitoTox reporter cells. Particulars: 32 μM rotenone, 16 μM antimycin, 5 mM azide, 80 μM oligomycin, 10 μM myxothiazol; 5, 10, 30, 60 minutes; 37°C. As for the experimental part:
as §1, with “Experiments consisted in washing out the culture media using KRH HEPES buffer containing (mM) 136 NaCl, 3 KCl, 1.25 CaCl2, 1.25 MgCl2, 10 HEPES/Tris and pH 7.2 at 37°C with 300 mOsm.” left out, “In experiments were pCMBS was used to block lactate exit, the inhibitor was added simultaneously with the mitochondrial toxicants. Data was collected in triplicated after 5, 10, 30, and 60 minutes of incubation.” left out, “filters. […]” for “filters.”

Assay [3] has as its system clonal MDA-MB-231 cells expressing Laconic. Kind of assay: Single-cell lactate imaging of MitoTox Reporter cells. The following applies: 32 μM rotenone, 16 μM antimycin, 80 μM oligomycin, 10 μM myxothiazol. In kind it is cell-based. The text has this:
To generate a cell system with a high signal-to-noise ratio suitable for standard multiplate readers, we developed a clonal cell line with high levels and homogeneous Laconic expression. To do so, we produced a lentivirus particle to infect and transduce Laconic in MDA-MB-231 cells. From pooled cells with diverse levels of Laconic expression we selected high expression clones through FACS. […] We termed this cell line “MitoTox Reporter”. Exposure of these cells to classical mitochondrial poisons produced a robust increase in the fluorescent signal, indicating acute toxicity-induced lactate accumulation. […] With this evidence in hand, cells were tested in a multi-well plate reader.
Fig 3 Characterization of “MitoTox reporter” cell line. A) Confocal images from FACS selected clonal MDA-MB-231 cells expressing Laconic. Size bars for 20x and 60x represent 100 μm and 10 μm, respectively. Cytosolic lactate accumulation induced by treatment with: B) 32 μM rotenone, C) 16 μM of antimycin, D) 80 μM of oligomycin, and 10 μM myxothiazol. Each trace is the average of ten cells from one representative experiment.

For assay [4], the system named is HepG2 cells. Further details: method as in Nadanaciva et al., 2012 [55]. Particulars: treatment time 0.03 hours; ref Nadanaciva et al., 2012 [55]; cited from earlier work.
The test system of assay [5] is HepG2 cells. Further details: method as in Nadanaciva et al., 2012 [55]. The following applies: treatment time 0.03 hours; ref Nadanaciva et al., 2012 [55]; cited from earlier work. The source holds these as a separate data set.
For assay [6], the system named is HepG2 cells. Further details: method as in Marroquin et al., 2007 [35]. The following applies: treatment time 24 hours; approximated IC50 directly from plotted data in the original paper; ref Marroquin et al., 2007 [35]; cited from earlier work.
The subject of assay [7] is mitochondrial membrane potential (MMP). The following applies: treatment time 6 hours; ref Li et al., 2014 [50]; read-out: IC50, MMP; cited from earlier work.
The next assay has as its system glutathione (GSH). Also noted: method as in Li et al., 2014 [50]. Particulars: treatment time 6 hours; ref Li et al., 2014 [50]; cited from earlier work.
The subject of the next assay is cell viability. Also noted: method as in Li et al., 2014 [50]. Particulars: treatment time 6 hours; ref Li et al., 2014 [50]; cited from earlier work.
The test system of assay [8] is reactive oxygen species (ROS). Also noted: method as in Li et al., 2014 [50]. The following applies: treatment time 6 hours; ref Li et al., 2014 [50]; cited from earlier work.
The test system of the next assay is oxygen consumption. Further details: method as in Hynes et al., 2013 [72]. The following applies: treatment time 0.13 hours; ref Hynes et al., 2013 [72]; cited from earlier work.
Assay [9] concerns extracellular acidification. Further details: method as in Hynes et al., 2013 [72]. The following applies: treatment time 0.13 hours; ref Hynes et al., 2013 [72]; cited from earlier work.
Assay [10] deals with MitoTox Reporter cells (MDA-MB-231 expressing Laconic). Kind of assay: Pilot screening of 13 compounds with MitoTox Reporter cells, multiplate reader. Particulars: for ΔR% (lactate accumulation): average of 4 replicate wells, Fig 9 legend 30 minutes, 37°C. The assay is classed as cell-based. The protocol:
as §1, §2
Multiple comparisons versus control groups (Holm-Sidak method), Overall significance level P < 0,05.
The capability of the assay to identify previously described toxic drugs was explored through a pilot screening assay. We selected 13 compounds from a variety of therapeutic classes to perform a pilot screening assay using MitoTox Reporter cells and a standard multiplate reader. […] To perform the assays, we prepared master stocks for each compound in 0.2% DMSO. Assays were performed with compounds at final concentrations of 1, 5, and 10 μM and the response of MitoTox Reporter cells were measured at 5, 10, 30, and 60 minutes. […] As a negative control we selected a compound with no reported side-effects.

Assay [11] concerns HepG2 cells. Further details: method as in PMID 22689143. The following applies: Seahorse technology, read-out: Concentration required to change the OCR and ECAR by 50%; cited from earlier work.
For another assay, the system named is ATP. The following applies: read-out: IC50, ATP depletion; cited from earlier work.

What is called pIC50 is the negative decadic logarithm of the IC50, by convention in mol/L. In the case of `[N-]=[N+]=[N-].[Na+]` [azide], the pIC50 in assay [1] was 2.84. The “Cytosolic lactate accumulation in astrocytes” value in assay [2] was “induced an acute cytosolic lactate accumulation”. Moreover, the “Lactate accumulation (ΔR%) in 96-well plates without pCMBS” value in the assay on MitoTox reporter cells was “declined after 5 minutes”.

antimycin: the negative logarithm of the IC50 (pIC50) in [1] (dose-response, treatment time 0.5 hours (Fig 8 legend: 10 minutes), 37°C) was 9.62; in the assay on HepG2 cells [4], 7.00; in the assay with HepG2 cells [5] it was 8.40; in the assay on HepG2 cells [6], 8.22; in [7] it was 5.68; in the assay on glutathione (GSH), 3.64. Besides, the negative logarithm of the IC50 (pIC50) is 3.54 with cell viability, 4.75 in assay [8], 7.41 in the assay with oxygen consumption and 7.13 in [9]. Also, the “Cytosolic lactate accumulation in astrocytes” value in assay [2] (32 μM rotenone, 16 μM antimycin, 5 mM azide, 80 μM oligomycin, buffer without carbon sources) is on record as “induced an acute cytosolic lactate accumulation”. The “Intracellular lactate levels in MitoTox Reporter cells (single-cell)” value in [3] was “acute, fast, and robust increase of intracellular lactate levels”.

On to `Cc1c(C)c2c(c(C)c1O)CCC(C)(COc1ccc(CC3SC(=O)NC3=O)cc1)O2` (stereo not drawn) [troglitazone], for which the “ΔR% (lactate accumulation)” value in assay [10] (5 μM) was “The effect was also detected”; in assay [10] (10 μM), “over 14%”. Also, the “Concentration at which toxicity / mitochondrial effects were detected in the pilot screening” value in assay [10] (tested at 1, 5 and 10 μM) worked out at 5 µM. Further, the negative-log IC50 (pIC50) in assay [7] is 3.76; with ATP, 4.55 and 4.50. Also, in the assay with HepG2 cells [11], the pEC50 is less than 4.00.
